Measurements: patent US6649797B2, “Compounds and methods of use to treat infectious diseases” (The Picower Institute for Medical Research, priority 1996, dated 2003)
Values joined by “and” are separate entries in the source; they are usually repeats but may differ in a detail not shown here. Identical values can stand only once. Like-named read-outs stand apart in the source and are kept apart here.

Experiments:
[1] = molecular target: HIV-1 RT (Human immunodeficiency virus type 1 group M subtype B, UniProt P04585); test: Enzymatic activity of HIV-1 RT in vitro; assay type: biochemical
[2] = Pharmacokinetics in mice (plasma, HPLC); assay type: in vivo, mouse; details: for AUC / Cmax / bioavailability / Tmax / A (zero time intercept of the distribution phase) / B (zero time intercept of the elimination phase) / Cltot / VD / t1/2α / t1/2β / α / β: mouse
Protocol: Standard addition curves for each test compound were constructed by adding increased amounts of drug to mouse or human A^+ plasma (Long Island Blood Services; Melville, N.Y). […] The column was washed with 1.0 ml of water and then eluted with 1.0 ml of 10 mM tetramethylammonium chloride/10 mM heptane sulfonate/4.2 mM H3PO4/95% CH3CN/5% H2O (Buffer C). The eluted sample was reduced to dryness in a rotary evaporator and resuspended in 1.0 ml Buffer A.
Two hundred μl of the resuspended sample was injected onto a Hewlett-Packard model 1090 high performance liquid chromatography system (HPLC)(Wilmington, Del.) equipped with a photodiode array ultraviolet/visible spectrophotometric detector, autosampler, and Chemstation operating software. The column used was a 250×4.6 mm Zorbax RX-C8 column (Mac-Mod Analyticals; Chadd's Ford, Pa.) kept at room temperature and run at 1.5 ml/min. The mobile phase used was Buffer A and 10 mM tetramethylammonium chloride/10 mM heptane sulfonate/4.2 mM H3PO4/75% CH3CN/25% H2O (Buffer B), with all runs initiated at 10% Buffer B. A linear 30 min gradient to 60% Buffer B was then performed, followed by a 4 min reverse gradient to initial conditions.
Female ND4 Swiss Webster mice (21-24 g) were obtained from Harlan Sprague Dawley (Indianapolis, Ind.) and randomly placed in groups of five in cages with free access to food and water. […] The other CNI compounds were administered intraperitoneally or by oral gavage as a solution in water titrated with sufficient HCl to dissolve the drug. At various time points, ranging from 5 min to 4 days, a single group of animals was euthanized by carbon dioxide inhalation and bled by cardiac puncture using heparin as an anticoagulant. The blood from the five mice in the group was pooled and centrifuged at 14000× g for 10 min. The volume of plasma was measured, and equal volume of Buffer A added, and the mixture extracted and analyzed as described above, except that the dried eluates were resuspended in 200 μl Buffer A and 100 μl was injected onto the high performance liquid chromatography (HPLC) system.
The area under the plasma concentration-time curve (AUC) was determined, and bioavailability was measured as AUCoral/AUCi.p. A and B represent the zero time intercept of the distribution and elimination phases respectively, and a and β the respective slopes of the phases multiplied by 2.303. The t/2α and t1/2β are calculated half-lives of the drug in each phase (0.693/α and 0.693/β respectively). The volume of distribution (VD) was calculated as dose/B, and the total clearance rate (Cltot) calculated as β*VD. Cmax and tmax are the maximal plasma concentration and time of this measurement, respectively.

[3] = test system: HIV-1ADA; test: Nuclear importation of HIV-1 DNA in monocytes (2-LTR circle PCR, Translocation Index); assay type: cell-based; details: 100 nM, 48 and 96 hours post infection
Text: The effects of Compound No. 2 on the nuclear importation of HIV-1 preintegration complexes can be directly measured by detecting the presence of circularized duplex HIV-1 genomic DNA. These duplex circles can be readily detected by PCR amplification using primers which span the junction of the circularized HIV-1 genome. Bukrinsky, M. I., et al., 1992, Proc.Natl.Acad.Sci. 89:6580-84.
Briefly, the efficiency of nuclear translocation was estimated by the ratio between the 2-LTR- and pol-specific PCR products, which reflects the portion of 2-LTR circle DNA molecules as a fraction of the entire pool of intracellular HIV-1 DNA. Viral 2-LTR circle DNA is formed exclusively within the nucleus of infected cells and thus is a convenient marker of successful nuclear translocation. […]
PCR analysis of HIV-1 DNA: Total DNA was extracted from HIV-1-infected cells using the IsoQuick extraction kit (Microprobe Corp., Garden Grove, Calif.). DNA was then analyzed by PCR using primer pairs that amplify the following sequences: a fragment of HIV-1 (LTR/gag) that is the last one to be synthesized during reverse transcription and therefore represents the pool of full-length viral DNA molecules; a fragment of polymerase gene (pol); a 2-LTR junction region found only in HIV-1 2-LTR circle DNA molecules; or a fragment of the cellular a-tubulin gene. […]

[4] = molecular target: T1, recombinant MA (Human immunodeficiency virus type 1 group M subtype B, UniProt P04591); test: Binding of [14C]-CNI-H0294 to recombinant MA in solution (immunoprecipitation); parameters: species or system HIV-1
T1 construct: 0.28 nanomoles of recombinant MA or RT [p66/p51 ] dimer
Protocol: Twenty nmol of [^14C]-CNI-HO294 were mixed with 0.28 nmol of recombinant MA or RT (a p51/p66 heterodimer) in 40 μl of binding buffer. Samples were incubated for 2 h at 37° C. in the presence or absence of 200 nmol of unlabeled CNI-H0294. MA and RT proteins were immunoprecipitated using protein G agarose and sheep polyclonal anti-MA (αMA) or rabbit anti-RT (αRT) sera, respectively. Pre-immune sera (PI) was used as control. Bound material was eluted from protein G using 0.1 M glycine buffer [pH 2.8] and the radioactivity in the eluate was quantified in a scintillation counter.
0.28 nanomoles of recombinant MA or RT [p66/p51 ] dimer were mixed with 20 nmol of [^14C] CNI-HO294 (specific activity 5×10^4 cpm/nmol) and incubated 2 hr at room temperature in 40 μl of binding buffer (PBS supplemented with 1% BSA, 0.1% Tween 20, 1 μg/ml leupeptin, 1 μg/ml aprotinin, 1 mM PMSF). Sheep anti-MA or rabbit anti-RT sera (both obtained from NIH AIDS Research and Reference Reagent Program) or pre-immune control sera were then added (at 1:100 dilution) and incubation continued for another 1 hr at room temperature. Immune complexes were precipitated with protein G-agarose, washed, and then eluted with 0.1 M glycine, pH 2.8. Radioactivity of the eluate was measured in a scintillation counter.

[5] = female, ND4 Swiss Webster, plasma, ip, 50 mg/kg, vehicle DMSO/peanut oil
[6] = female, ND4 Swiss Webster, plasma, ip, 50 mg/kg, vehicle water
[7] = female, ND4 Swiss Webster, plasma, po, 50 mg/kg, vehicle DMSO/peanut oil
[8] = i.p., 50 mg/kg, vehicle DMSO/peanut oil

CC(=O)c1cc(Nc2cc(C)[n+](C)c(N)n2)cc(C(C)=O)c1.[I-] [Compound No. 2, 2-amino-4-(3,5-diacetylphenyl)amino-1,6-dimethylpyrimidinium iodide]
inhibition of reverse transcriptase ([1]; data not shown): does not inhibit reverse transcriptase
Dose ([2]; calculated from clearance for target serum conc. (No. 2: 10 nM; No. 11: 50 nM; No. 15: 15 nM)): 6.80 mg/Kg day
Translocation Index ([3]; relative to drug free control): less than 10
inhibition at 0.1 µM ([3]; Human immunodeficiency virus 1, Monocyte): > 90%

CC(=O)c1cc(Nc2cc(C)[n+](C)c(N)n2)cc(C(C)=O)c1 [CNI-0294, 2-Amino-4-(3,5-diacetylphenyl)amino-1,6-dimethylpyrimidinium chloride]
block of enzymatic activity of HIV-1 RT in vitro ([1]; concentrations up to 50 μM): nor did it block in concentrations up to 50 μM the enzymatic activity of HIV-1 RT in vitro
binding to recombinant MA [4]: No binding was observed
AUC [2, 5]: 9150 ng·h/mL
Cmax [2, 5]: 18800 ng/mL
AUC [2, 6]: 8830 ng·h/mL
Cmax [2, 6]: 18900 ng/mL
bioavailability ([2]; female, ND4 Swiss Webster, plasma, oral, mice, single 50 mg/kg dose, AUCoral against AUCi.p., read-out: relative bioavailability): 6%
AUC [2, 7]: 560 ng·h/mL
Cmax [2, 7]: 410 ng/mL
Tmax ([2]; female, ND4 Swiss Webster, plasma, ip, i.p., 50 mg/kg, vehicle DMSO/peanut oil, read-out: tmax (converted)): 5 min
bioavailability ([2]; female, ND4 Swiss Webster, plasma, oral, 50 mg/kg, vehicle DMSO/peanut oil, AUCoral/AUCi.p., read-out: Bioavailability): 6%
Tmax ([2]; female, ND4 Swiss Webster, plasma, oral, 50 mg/kg, vehicle DMSO/peanut oil, read-out: tmax (converted)): 60 min
maximal plasma level ([2]; mice, oral, single 50 mg/kg dose): 0.4 µg/mL
maximal plasma level ([2]; mice, single i.p. injection (50 mg/kg; CNI-1594 20 mg/kg)): 18.76 µg/mL and 18.76 to 18.93 µg/mL
A (zero time intercept of the distribution phase) [2, 8]: 14.00 µg/mL
B (zero time intercept of the elimination phase) [2, 8]: 0.07 µg/mL
Cltot [2, 8]: 35.35 mL/min
VD [2, 8]: 14.14 L
t1/2α [2, 8]: 37.2 min
t1/2β [2, 8]: 277 min
α [2, 8]: 1.12 h⁻¹
β [2, 8]: 0.15 h⁻¹
A (zero time intercept of the distribution phase) ([2]; i.p., 50 mg/kg, vehicle water): 16.07 µg/mL
B (zero time intercept of the elimination phase) ([2]; i.p., 50 mg/kg, vehicle water): 0.05 µg/mL
Cltot ([2]; i.p., 50 mg/kg, vehicle water): 62.70 mL/min
Tmax ([2]; i.p., 50 mg/kg, vehicle water): 5 min
VD ([2]; i.p., 50 mg/kg, vehicle water): 19.80 L
t1/2α ([2]; i.p., 50 mg/kg, vehicle water): 24 min
t1/2β ([2]; i.p., 50 mg/kg, vehicle water): 219 min
α ([2]; i.p., 50 mg/kg, vehicle water): 1.74 h⁻¹
β ([2]; i.p., 50 mg/kg, vehicle water): 0.19 h⁻¹
